Test results published in patent US9999224B2, “Antimicrobial reverse thermal gel and methods of forming and using same” (The Regents of the University of Colorado, a body corporate, priority 2014, dated 2018).

System: cells
Assay: MTT assay, cytotoxicity / biocompatibility (FIG. 12)
Format: cell-based
Conditions: cells plated on dried polymer layer; Q-PEI-PNIPAAm 20% conjugation at 1, 3 and 5%; negative control growth medium, positive control 5% DMSO
Protocol: FIG. 12 illustrates Cytotoxicity Tests of Q-PEI-PNIPAAm. An MTT assay was conducted to assess the biocompatibility of Q-PEI-PNIPAAm. Several methods were used to conduct this test. Previously, the Q-PEI-PNIPAAm polymer had been placed on top of the cells mixed with the media; however, due to the gelling nature of the sample the polymer was not in contact with the cells for long period of time. Due to this, the methodology was modified and the cells were plated on top of the polymer and then trypsinized and re-plated before conducting the test; however, trypsinizing, centrifuging and re-plating cells can lead to higher variability in number of cells per well and since the cells were not left to attached on the plates for long enough the results may be inaccurate. Finally the polymer was dissolved in alcohol, left to evaporate and then the cells were plated on top. Since the MTT measures absorbance, blanks were required for each sample. However, the layer of polymer on the plate needed to be very thin so the polymer concentration tested was 1, 3 and 5%. […] Chlorhexidine 2%, a common skin preparation solution was tested as a control.
A statistically significant difference was observed between the experimental samples, negative and positive control (cells cultured with 5% DMSO) (***indicates […], and **indicates p<0.05.).

[H]/N=C(\N/C(=N/[H])NCCCCCCNC(=N)NC(=N)Nc1ccc(Cl)cc1)Nc1ccc(Cl)cc1 [chlorhexidine]
Metabolic activity of cells (MTT absorbance) versus controls: the same difference was obtained
